Test results as given in EP4745137A1 (Gluetacs Therapeutics (Shanghai) Co., Ltd., priority 2023, dated 2025).

Legend:
Format in all cases: cell-based
Conditions in all cases: 24 hours of compound treatment
WEE1 = biological target: T1, WEE1 (Homo sapiens, UniProt P30291+Q96SW2); test: Western-blot assay of substrate protein degradation in hPBMCs, WEE1
T1 construct: endogenous in cells; host or cells: hPBMCs (Milecell Biotechnologies)
Description: (§1) After 24 hours of compounds treatment, cells were harvested and lysed in RIPA protein lysate containing protease inhibitors on ice for 30 min, followed by centrifugation. The supernatant was aspirated as the extracted total cell protein. The protein concentration of the supernatant was determined using the conventional BCA (Bicinchoninic Acid) assay. • (2) To the collected supernatant, 5X SDS sample loading buffer was added, followed by denaturation at 95°C for 5 minutes. The denatured samples were then separated by SDS-PAGE electrophoresis on a polyacrylamide gel, transferred onto a nitrocellulose membrane (0.45 µm NC membrane), blocked with blocking buffer at room temperature for 1 hour, and subjected to antibody incubation and development procedures according to the antibody manufacturer's instructions (Cell Signaling Technology Company). […]
(§2) Target protein remaining (%) refers to the percentage of target protein remaining in cells after treatment with protein degrader compounds.
(§3) Calculation method for target protein remaining (%): Use ImageJ software to measure grayscale values of Western blot bands from drug (protein degrader)-treated samples. The grayscale value of drug-treated bands is divided by that of internal control protein bands, and the resulting quotient is normalized to obtain the relative percentage of remaining target protein after protein degrader treatment. Target protein degradation rate(%) = 1−target protein remaining(%). [formula]

IKZF1 = biological target: T2, IKZF1 (Homo sapiens, UniProt Q13422+Q96SW2); test: Western-blot assay of substrate protein degradation in hPBMCs, IKZF1
T2 construct: endogenous in cells; host or cells: hPBMCs (Milecell Biotechnologies)
Description: as §1, §2, §3

IKZF2 = biological target: T3, IKZF2 (Homo sapiens, UniProt Q96SW2+Q9UKS7); test: Western-blot assay of substrate protein degradation in hPBMCs, IKZF2
T3 construct: endogenous in cells; host or cells: hPBMCs (Milecell Biotechnologies)
Description: as §1, §2, §3

IKZF3 = biological target: T4, IKZF3 (Homo sapiens, UniProt Q96SW2+Q9UKT9); test: Western-blot assay of substrate protein degradation in hPBMCs, IKZF3
T4 construct: endogenous in cells; host or cells: hPBMCs (Milecell Biotechnologies)
Description: as §1, §2, §3

CK1α = biological target: T5, CK1α (Homo sapiens, UniProt P48729+Q96SW2); test: Western-blot assay of substrate protein degradation in hPBMCs, CK1α
T5 construct: endogenous in cells; host or cells: hPBMCs (Milecell Biotechnologies)
Description: as §1, §2, §3

GSPT1 = biological target: T6, GSPT1 (Homo sapiens, UniProt P15170+Q96SW2); test: Western-blot assay of substrate protein degradation in hPBMCs, GSPT1
T6 construct: endogenous in cells; host or cells: hPBMCs (Milecell Biotechnologies)
Description: as §1, §2, §3

[1] = compounds tested at 50 nM and 500 nM (concentration of the table not stated)
[2] = 50 nM and 500 nM tested (concentration behind the class not stated)

T5 sequence (P48729 whole entry): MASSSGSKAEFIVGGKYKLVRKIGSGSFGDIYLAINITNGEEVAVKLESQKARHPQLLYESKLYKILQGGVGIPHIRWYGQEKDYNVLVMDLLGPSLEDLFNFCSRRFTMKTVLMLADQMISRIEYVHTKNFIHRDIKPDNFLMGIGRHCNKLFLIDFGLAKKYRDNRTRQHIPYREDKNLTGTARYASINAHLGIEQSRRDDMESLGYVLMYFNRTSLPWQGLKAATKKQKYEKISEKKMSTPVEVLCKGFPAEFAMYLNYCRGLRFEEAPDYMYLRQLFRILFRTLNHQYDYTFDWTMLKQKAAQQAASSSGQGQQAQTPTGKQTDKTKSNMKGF
T5 sequence (Q96SW2 whole entry): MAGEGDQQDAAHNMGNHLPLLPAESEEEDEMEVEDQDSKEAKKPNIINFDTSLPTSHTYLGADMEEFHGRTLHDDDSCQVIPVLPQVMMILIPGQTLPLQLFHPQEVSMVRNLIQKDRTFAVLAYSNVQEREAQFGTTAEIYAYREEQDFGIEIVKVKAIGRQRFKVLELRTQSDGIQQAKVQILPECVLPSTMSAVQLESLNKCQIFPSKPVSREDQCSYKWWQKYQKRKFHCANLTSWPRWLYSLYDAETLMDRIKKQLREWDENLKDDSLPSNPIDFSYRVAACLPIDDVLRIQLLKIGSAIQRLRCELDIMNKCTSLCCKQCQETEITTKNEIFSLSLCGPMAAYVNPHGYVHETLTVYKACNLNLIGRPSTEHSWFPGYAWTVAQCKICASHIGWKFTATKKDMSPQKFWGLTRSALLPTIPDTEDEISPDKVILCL
T5 sequence (Q16531 whole entry partner): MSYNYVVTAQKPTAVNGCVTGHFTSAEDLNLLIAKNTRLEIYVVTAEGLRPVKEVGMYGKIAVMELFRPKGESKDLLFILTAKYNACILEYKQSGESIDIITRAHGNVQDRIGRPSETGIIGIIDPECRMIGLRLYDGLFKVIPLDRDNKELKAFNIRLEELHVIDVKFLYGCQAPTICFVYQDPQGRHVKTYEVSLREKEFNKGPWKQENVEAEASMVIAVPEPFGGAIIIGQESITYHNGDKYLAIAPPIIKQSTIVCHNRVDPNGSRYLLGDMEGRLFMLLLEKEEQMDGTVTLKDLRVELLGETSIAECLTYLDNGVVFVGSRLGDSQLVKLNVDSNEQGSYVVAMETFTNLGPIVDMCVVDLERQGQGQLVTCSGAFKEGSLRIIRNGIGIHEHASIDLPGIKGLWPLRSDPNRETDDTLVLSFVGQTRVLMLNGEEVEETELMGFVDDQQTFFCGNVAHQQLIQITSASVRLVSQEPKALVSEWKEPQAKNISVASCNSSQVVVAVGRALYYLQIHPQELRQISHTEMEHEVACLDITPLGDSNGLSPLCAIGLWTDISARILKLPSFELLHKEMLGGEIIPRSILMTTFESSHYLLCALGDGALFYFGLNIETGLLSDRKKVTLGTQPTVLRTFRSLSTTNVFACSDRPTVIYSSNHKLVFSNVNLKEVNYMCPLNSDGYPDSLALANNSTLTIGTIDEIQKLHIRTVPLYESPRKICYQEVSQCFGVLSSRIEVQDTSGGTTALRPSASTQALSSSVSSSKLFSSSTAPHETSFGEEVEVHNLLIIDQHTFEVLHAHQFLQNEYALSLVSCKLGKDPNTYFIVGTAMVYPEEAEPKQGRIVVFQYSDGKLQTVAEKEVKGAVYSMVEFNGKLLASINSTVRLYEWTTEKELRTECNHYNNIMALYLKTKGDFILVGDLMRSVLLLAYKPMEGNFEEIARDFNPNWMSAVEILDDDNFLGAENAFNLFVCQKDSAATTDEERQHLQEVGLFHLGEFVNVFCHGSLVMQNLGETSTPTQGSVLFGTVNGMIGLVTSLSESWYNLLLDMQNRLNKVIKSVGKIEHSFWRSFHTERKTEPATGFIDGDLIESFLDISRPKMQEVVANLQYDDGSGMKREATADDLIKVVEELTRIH
T6 sequence (P15170 whole entry): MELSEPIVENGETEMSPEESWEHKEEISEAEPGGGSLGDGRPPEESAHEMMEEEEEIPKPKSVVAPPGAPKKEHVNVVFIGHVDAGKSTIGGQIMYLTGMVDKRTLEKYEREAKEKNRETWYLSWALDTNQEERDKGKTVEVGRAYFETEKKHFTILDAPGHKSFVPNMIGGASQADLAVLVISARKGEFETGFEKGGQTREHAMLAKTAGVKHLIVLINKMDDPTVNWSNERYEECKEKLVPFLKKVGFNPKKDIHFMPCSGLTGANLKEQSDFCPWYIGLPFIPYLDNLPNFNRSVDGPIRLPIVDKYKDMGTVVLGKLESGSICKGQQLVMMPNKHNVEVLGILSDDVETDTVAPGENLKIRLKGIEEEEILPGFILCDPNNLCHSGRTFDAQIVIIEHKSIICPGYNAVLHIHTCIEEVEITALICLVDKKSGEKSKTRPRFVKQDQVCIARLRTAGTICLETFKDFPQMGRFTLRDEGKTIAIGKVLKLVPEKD
T6 sequence (Q96SW2 whole entry): as the sequence (Q96SW2 whole entry) above
T6 sequence (Q16531 whole entry partner): as the sequence (Q16531 whole entry partner) above
T2 sequence (Q13422 whole entry): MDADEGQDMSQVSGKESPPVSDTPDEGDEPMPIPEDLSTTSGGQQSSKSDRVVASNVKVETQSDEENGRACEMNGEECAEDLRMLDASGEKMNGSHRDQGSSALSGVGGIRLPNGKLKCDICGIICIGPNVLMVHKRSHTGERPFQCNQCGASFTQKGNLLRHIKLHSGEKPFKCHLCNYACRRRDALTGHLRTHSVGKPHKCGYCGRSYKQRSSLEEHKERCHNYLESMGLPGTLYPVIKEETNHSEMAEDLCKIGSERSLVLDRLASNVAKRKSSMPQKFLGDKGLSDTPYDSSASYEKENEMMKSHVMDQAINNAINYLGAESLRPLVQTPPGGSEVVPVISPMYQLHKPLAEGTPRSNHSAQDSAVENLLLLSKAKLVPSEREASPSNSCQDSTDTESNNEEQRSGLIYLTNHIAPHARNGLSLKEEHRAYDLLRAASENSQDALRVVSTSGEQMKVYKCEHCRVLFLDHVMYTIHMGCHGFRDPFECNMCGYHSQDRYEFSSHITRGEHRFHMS
T2 sequence (Q96SW2 whole entry): as the sequence (Q96SW2 whole entry) above
T2 sequence (Q16531 whole entry partner): as the sequence (Q16531 whole entry partner) above
T1 sequence (P30291 whole entry): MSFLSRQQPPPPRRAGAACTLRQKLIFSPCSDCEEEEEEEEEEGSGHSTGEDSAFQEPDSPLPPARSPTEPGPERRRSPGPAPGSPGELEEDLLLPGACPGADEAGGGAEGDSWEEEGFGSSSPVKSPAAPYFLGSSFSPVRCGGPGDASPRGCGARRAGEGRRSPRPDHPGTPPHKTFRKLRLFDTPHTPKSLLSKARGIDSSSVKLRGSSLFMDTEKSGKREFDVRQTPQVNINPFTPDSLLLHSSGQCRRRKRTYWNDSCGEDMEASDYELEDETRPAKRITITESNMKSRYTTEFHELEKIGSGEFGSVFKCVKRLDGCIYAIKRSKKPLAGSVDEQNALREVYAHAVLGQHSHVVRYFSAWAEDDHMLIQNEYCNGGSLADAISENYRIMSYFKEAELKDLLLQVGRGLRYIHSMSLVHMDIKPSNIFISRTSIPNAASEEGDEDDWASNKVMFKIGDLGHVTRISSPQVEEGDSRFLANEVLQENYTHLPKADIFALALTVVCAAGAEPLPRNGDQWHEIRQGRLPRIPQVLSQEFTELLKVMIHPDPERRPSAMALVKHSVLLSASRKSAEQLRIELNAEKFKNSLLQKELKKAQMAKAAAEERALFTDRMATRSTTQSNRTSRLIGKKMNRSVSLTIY
T1 sequence (Q96SW2 whole entry): as the sequence (Q96SW2 whole entry) above
T1 sequence (Q16531 whole entry partner): as the sequence (Q16531 whole entry partner) above
T4 sequence (Q9UKT9 whole entry): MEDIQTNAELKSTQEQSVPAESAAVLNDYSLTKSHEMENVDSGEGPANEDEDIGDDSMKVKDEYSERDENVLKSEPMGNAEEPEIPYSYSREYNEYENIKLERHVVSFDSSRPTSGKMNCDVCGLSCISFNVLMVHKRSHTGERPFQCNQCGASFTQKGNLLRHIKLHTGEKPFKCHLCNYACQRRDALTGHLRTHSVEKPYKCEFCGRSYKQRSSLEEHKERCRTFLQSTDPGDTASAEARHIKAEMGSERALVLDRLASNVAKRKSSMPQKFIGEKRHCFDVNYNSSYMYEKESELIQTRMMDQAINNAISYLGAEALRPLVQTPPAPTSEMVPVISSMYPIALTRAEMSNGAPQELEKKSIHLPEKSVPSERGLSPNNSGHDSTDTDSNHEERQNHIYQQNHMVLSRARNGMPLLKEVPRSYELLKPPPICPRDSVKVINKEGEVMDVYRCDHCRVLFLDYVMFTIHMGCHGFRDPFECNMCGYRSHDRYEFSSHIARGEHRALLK
T4 sequence (Q96SW2 whole entry): as the sequence (Q96SW2 whole entry) above
T4 sequence (Q16531 whole entry partner): as the sequence (Q16531 whole entry partner) above

| Structure (SMILES) | Weel substrate protein remaining % (WEE1; [1]) | IKZF 1 substrate protein remaining % (IKZF1; [1]) | IKZF2 substrate protein remaining % (IKZF2; [1]) | IKZF3 substrate protein remaining % (IKZF3; [1]) | CK1a substrate protein remaining % (CK1α; [1]) | GSPT1 substrate protein remaining % (GSPT1; [1]) | Weel substrate protein remaining % (WEE1; [2]) | IKZF 1 substrate protein remaining % (IKZF1; [2]) | IKZF2 substrate protein remaining % (IKZF2; [2]) | IKZF3 substrate protein remaining % (IKZF3; [2]) | CK1a substrate protein remaining % (CK1α; [2]) | GSPT1 substrate protein remaining % (GSPT1; [2]) |
| --- | --- | --- | --- | --- | --- | --- | --- | --- | --- | --- | --- | --- |
| O=C1CCC(N2C(=O)c3ccc(CN4CCC(c5ccnc6cc(F)ccc56)CC4)cc3C2=O)C(=O)N1 (stereo not drawn) [GT-06265, 2-(2,6-dioxopiperidin-3-yl)-5-((4-(7-fluoroquinolin-4-yl)piperidin-1-yl)methyl)isoindoline-1,3-dione] | B (80%< substrate protein remaining %≤ 100%) | B (80%< substrate protein remaining %≤ 100%) | A (0% ≤ substrate protein remaining % ≤ 80%) | B (80%< substrate protein remaining %≤ 100%) | B (80%< substrate protein remaining %≤ 100%) | B (80%< substrate protein remaining %≤ 100%) | – | – | – | – | – | – |
| O=C1CCC(N2C(=O)c3ccc(CN4CCC(c5cccc6cnccc56)CC4)cc3C2=O)C(=O)N1 (stereo not drawn) [GT-06266, 2-(2,6-dioxopiperidin-3-yl)-5-((4-(isoquinolin-5-yl)piperidin-1-yl)methyl)isoindoline-1,3-dione] | B (80%< substrate protein remaining %≤ 100%) | B (80%< substrate protein remaining %≤ 100%) | A (0% ≤ substrate protein remaining % ≤ 80%) | B (80%< substrate protein remaining %≤ 100%) | B (80%< substrate protein remaining %≤ 100%) | B (80%< substrate protein remaining %≤ 100%) | – | – | – | – | – | – |
| O=C1CCC(N2C(=O)c3ccc(CN4CC=C(c5ccnc6cc(F)ccc56)CC4)cc3C2=O)C(=O)N1 (stereo not drawn) [GT-06267, 2-(2,6-dioxopiperidin-3-yl)-5-((4-(7-fluoroquinolin-4-yl)-3,6-dihydropyridin-1(2H)-yl)methyl)isoindoline-1,3-dione] | A (0% ≤ substrate protein remaining % ≤ 80%) | B (80%< substrate protein remaining %≤ 100%) | A (0% ≤ substrate protein remaining % ≤ 80%) | A (0% ≤ substrate protein remaining % ≤ 80%) | A (0% ≤ substrate protein remaining % ≤ 80%) | A (0% ≤ substrate protein remaining % ≤ 80%) | – | – | – | – | – | – |
| O=C1CCC(N2C(=O)c3ccc(CN4CC=C(c5cccc6cnccc56)CC4)cc3C2=O)C(=O)N1 (stereo not drawn) [GT-06268, 2-(2,6-dioxopiperidin-3-yl)-5-((4-(isoquinolin-5-yl)-3,6-dihydropyridin-1(2H)-yl)methyl)isoindoline-1,3-dione] | A (0% ≤ substrate protein remaining % ≤ 80%) | B (80%< substrate protein remaining %≤ 100%) | A (0% ≤ substrate protein remaining % ≤ 80%) | A (0% ≤ substrate protein remaining % ≤ 80%) | A (0% ≤ substrate protein remaining % ≤ 80%) | A (0% ≤ substrate protein remaining % ≤ 80%) | – | – | – | – | – | – |
| O=C1CCC(N2C(=O)c3ccc(CN4CC(C5CCOc6cc(F)ccc65)C4)cc3C2=O)C(=O)N1 (stereo not drawn) [GT-06269, 2-(2,6-dioxopiperidin-3-yl)-5-((3-(7-fluorochroman-4-yl)azetidin-1-yl)methyl)isoindoline-1,3-dione] | B (80%< substrate protein remaining %≤ 100%) | B (80%< substrate protein remaining %≤ 100%) | A (0% ≤ substrate protein remaining % ≤ 80%) | A (0% ≤ substrate protein remaining % ≤ 80%) | B (80%< substrate protein remaining %≤ 100%) | A (0% ≤ substrate protein remaining % ≤ 80%) | – | – | – | – | – | – |
| O=C1CCC(N2C(=O)c3ccc(CN4CC(c5ccnc6cc(F)ccc56)C4)cc3C2=O)C(=O)N1 (stereo not drawn) [GT-06270, 2-(2,6-dioxopiperidin-3-yl)-5-((3-(7-fluoroquinolin-4-yl)azetidin-1-yl)methyl)isoindoline-1,3-dione] | – | – | – | – | – | – | B (80%< substrate protein remaining %≤ 100%) | B (80%< substrate protein remaining %≤ 100%) | B (80%< substrate protein remaining %≤ 100%) | B (80%< substrate protein remaining %≤ 100%) | B (80%< substrate protein remaining %≤ 100%) | A (0% ≤ substrate protein remaining % ≤ 80%) |
| O=C1CCC(N2C(=O)c3ccc(CN4CC(N5CCc6cc(F)ccc65)C4)cc3C2=O)C(=O)N1 (stereo not drawn) [GT-06271, 2-(2,6-dioxopiperidin-3-yl)-5-((3-(5-fluoroindolin-1-yl)azetidin-1-yl)methyl)isoindoline-1,3-dione] | – | – | – | – | – | – | A (0% ≤ substrate protein remaining % ≤ 80%) | A (0% ≤ substrate protein remaining % ≤ 80%) | A (0% ≤ substrate protein remaining % ≤ 80%) | B (80%< substrate protein remaining %≤ 100%) | B (80%< substrate protein remaining %≤ 100%) | A (0% ≤ substrate protein remaining % ≤ 80%) |
| O=C1CCC(N2C(=O)c3ccc(CN4CCN(c5cccc(Cl)c5Cl)CC4)cc3C2=O)C(=O)N1 (stereo not drawn) [GT-06273, 5-((4-(2,3-dichlorophenyl)piperazin-1-yl)methyl)-2-(2,6-dioxopiperidin-3-yl)isoindoline-1,3-dione] | – | – | – | – | – | – | A (0% ≤ substrate protein remaining % ≤ 80%) | A (0% ≤ substrate protein remaining % ≤ 80%) | A (0% ≤ substrate protein remaining % ≤ 80%) | A (0% ≤ substrate protein remaining % ≤ 80%) | A (0% ≤ substrate protein remaining % ≤ 80%) | A (0% ≤ substrate protein remaining % ≤ 80%) |
| O=C1CCC(N2C(=O)c3ccc(CN4CCN(c5ccccc5Cl)CC4)cc3C2=O)C(=O)N1 (stereo not drawn) [GT-06274, 5-((4-(2-chlorophenyl)piperazin-1-yl)methyl)-2-(2,6-dioxopiperidin-3-yl)isoindoline-1,3-dione] | – | – | – | – | – | – | B (80%< substrate protein remaining %≤ 100%) | B (80%< substrate protein remaining %≤ 100%) | B (80%< substrate protein remaining %≤ 100%) | B (80%< substrate protein remaining %≤ 100%) | B (80%< substrate protein remaining %≤ 100%) | A (0% ≤ substrate protein remaining % ≤ 80%) |
| O=C1CCC(N2C(=O)c3ccc(CN4CCN(c5ccc(Cl)cc5)CC4)cc3C2=O)C(=O)N1 (stereo not drawn) [GT-06275, 5-((4-(4-chlorophenyl)piperazin-1-yl)methyl)-2-(2,6-dioxopiperidin-3-yl)isoindoline-1,3-dione] | – | – | – | – | – | – | B (80%< substrate protein remaining %≤ 100%) | B (80%< substrate protein remaining %≤ 100%) | B (80%< substrate protein remaining %≤ 100%) | B (80%< substrate protein remaining %≤ 100%) | B (80%< substrate protein remaining %≤ 100%) | A (0% ≤ substrate protein remaining % ≤ 80%) |
